Source: US7169955B2, “Perfluoroisopropylbenzene derivative” (Nihon Nohyaku Co., Ltd., priority 2000, dated 2007)

What was measured:
Type in all cases: in vivo
[1] = test system: barnyard grass (Echinochloa crus-galli Beauv.); test: Herbicidal effect on paddy field weeds pre-emergence; settings: paddy soil treatment pre-emergence, 5 kg/ha, 21 days after treatment
Method: (§1) Soil was filled into 1/10000 are pots and brought into a state of paddy field, in which seeds of barnyard grass (Echinochloa crus-galli Beauv.) and bulrush (Scirpus juncoides Roxb.) were made to be before germination. The soil in the pots were treated with a solution containing a predetermined dosage of a chemical agent comprising a compound obtained in Reference Example 1 as the active ingredient.
(§2) Twenty one days after the treatment, the herbicidal effect was investigated, the result was compared with that in untreated plot to calculate the weedkilling rate, and the herbicidal effect was judged according to the following criterion.

[2] = test system: bulrush (Scirpus juncoides Roxb.); test: as above; settings: paddy soil treatment pre-emergence, 5 kg/ha, 21 days after treatment
Method: as §1, §2

paddy rice = test: Phytotoxicity on paddy rice (paddy field pre-emergence test); settings: 5 kg/ha, 21 days after treatment
Method: as §1, §2
At the same time, phytotoxicity on paddy rice was investigated, and judged according to the following criterion.

Arabidopsis thaliana [3] = test: Herbicidal effect on upland weeds pre-emergence; settings: upland pre-emergence spray, 5 kg/ha, 14 days after treatment
Source text: (§3) Polyethylene-made vats having a size of 10 cm (length)×20 cm (width)×5 cm (height) were filled with soil, sown with seeds of Arabidopsis thialiana, bent grass (Agrostis spp.) and monochoria (Monochoria veginalis), and with seeds of wheat and soybean plant as upland crop plants, and then covered with soil. Then, a liquid preparation of an agent comprising a prescribed concentration of a compound obtained in Reference Example 1 as active ingredient was sprayed.
(§4) Fourteen days after the treatment, the herbicidal effect was investigated, from which weed-killing rate was calculated in the same manner as in Reference Example 2, and the herbicidal effect was judged.

[4] = test system: bent grass (Agrostis spp.); test: Herbicidal effect on upland weeds pre-emergence; settings: upland pre-emergence spray, 5 kg/ha, 14 days after treatment
Source text: as §3, §4

[5] = test system: monochoria (Monochoria veginalis); test: Herbicidal effect on upland weeds pre-emergence; settings: upland pre-emergence spray, 5 kg/ha, 14 days after treatment
Source text: as §3, §4

soybean plant [6] = test: Phytotoxicity on upland crop plants, pre-emergence test; settings: upland pre-emergence spray, 5 kg/ha, 14 days after treatment
Source text: as §3, §4
(§5) At the same time, phytotoxicity on soybean plant and wheat was investigated and judged according to the criterion mentioned in Reference Example 1.

wheat [7] = test: as above; settings: upland pre-emergence spray, 5 kg/ha, 14 days after treatment
Source text: as §3, §4, §5

Arabidopsis thaliana [8] = test: Herbicidal effect on upland weeds after emergence; settings: after emergence (1 to 2 leaved stage) spray, 5 kg/ha, 14 days after treatment
Source text: (§6) Polyethylene-made vats having a size of 10 cm (length)×20 cm (width)×5 cm (height) were filled with soil, sown with the seeds of the upland weeds mentioned below and with seeds of soybean plant and wheat as upland crop plants, and then covered with soil. The plants were made to grow up until they reached the 1 to 2 leaved stage, after which an agent comprising a prescribed concentration of a compound obtained in Reference Example 1 as active ingredient was sprayed.
(§7) Fourteen days after the treatment, the herbicidal effect was investigated, from which weed-killing rate was calculated in the same manner as in Reference Example 2 and the results were judged. At the same time, phytotoxicity on soybean plant and wheat was investigated and judged in the same manner as in Reference Example 2.

[9] = test system: bent grass (Agrostis spp.); test: Herbicidal effect on upland weeds after emergence; settings: after emergence (1 to 2 leaved stage) spray, 5 kg/ha, 14 days after treatment
Source text: as §6, §7

[10] = test system: monochoria (Monochoria veginalis); test: Herbicidal effect on upland weeds after emergence; settings: after emergence (1 to 2 leaved stage) spray, 5 kg/ha, 14 days after treatment
Source text: as §6, §7

soybean plant [11] = test: Phytotoxicity on upland crop plants, after-emergence test; settings: after emergence spray, 5 kg/ha, 14 days after treatment
Source text: as §6, §7

wheat [12] = test: as above; settings: after emergence spray, 5 kg/ha, 14 days after treatment
Source text: as §6, §7

SMILES: CN(C)C(=O)Nc1ccc(C(F)(C(F)(F)F)C(F)(F)F)cc1 [Reference Example 1, 1,1-dimethyl-3-(4-heptafluoroisopropylphenyl)urea]
- herbicidal effect (rating) [1]: 4 (Weedkilling rate is 90–99%.)
- herbicidal effect (rating) [2]: 2 (Weedkilling rate is 40–69%.)
- phytotoxicity (rating) (paddy rice): 0 (Weedkilling rate is 0–20 (No phytotoxicity).)
- herbicidal effect (rating) (Arabidopsis thaliana [3]): 5 (Weedkilling rate is 100%.)
- herbicidal effect (rating) [4]: 4 (Weedkilling rate is 90–99%.)
- herbicidal effect (rating) [5]: 5 (Weedkilling rate is 100%.)
- phytotoxicity (rating) (soybean plant [6]): 0 (Weedkilling rate is 0–20 (No phytotoxicity).)
- phytotoxicity (rating) (wheat [7]): 0 (Weedkilling rate is 0–20 (No phytotoxicity).)
- herbicidal effect (rating) (Arabidopsis thaliana [8]): 5 (Weedkilling rate is 100%.)
- herbicidal effect (rating) [9]: 3 (Weedkilling rate is 70–89%.)
- herbicidal effect (rating) [10]: 3 (Weedkilling rate is 70–89%.)
- phytotoxicity (rating) (soybean plant [11]): 0 (Weedkilling rate is 0–20 (No phytotoxicity).)
- phytotoxicity (rating) (wheat [12]): 0 (Weedkilling rate is 0–20 (No phytotoxicity).)
